Test results from ChEMBL document CHEMBL1201862, “PubChem BioAssay data set” (2004).
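Following 48 hours of exposure in 96-well plates, responses at five concentrations were used to interpolate endpoints linearly. Abbreviation: GI50, concentration required for 50% inhibition of growth.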 Activity calls are given as the source filed them. Cut-off read from the data, not from the text of the source: active = GI50 up to about 1.1 µM and inactive = higher.

Key:
Assay in all cases: growth of human tumour cells (NCI), 48 h
786-0 = system: 786-0
A498 = system: A498
A549 = system: A549
ACHN = system: ACHN
CAKI-1 = system: CAKI-1
CCRF-CEM = system: CCRF-CEM
COLO 205 = system: COLO 205
DLD-1 = system: DLD-1
DMS-114 = system: DMS-114
DMS-273 = system: DMS-273
EKVX = system: EKVX
HCC 2998 = system: HCC 2998
HCT-116 = system: HCT-116
HCT-15 = system: HCT-15
HL-60 = system: HL-60
HOP-18 = system: HOP-18
HOP-92 = system: HOP-92
HT-29 = system: HT-29
IGROV-1 = system: IGROV-1
K562 = system: K562
KM-20L2 = system: KM-20L2
KM12 = system: KM12
LOX IMVI = system: LOX IMVI
LXFL 529 = system: LXFL 529
M14 = system: M14
M19-MEL = system: M19-MEL
MOLT-4 = system: MOLT-4
Malme-3M = system: Malme-3M
NCI-H226 = system: NCI-H226
NCI-H23 = system: NCI-H23
NCI-H460 = system: NCI-H460
NCI-H522 = system: NCI-H522
OVCAR-3 = system: OVCAR-3
OVCAR-4 = system: OVCAR-4
OVCAR-5 = system: OVCAR-5
OVCAR-8 = system: OVCAR-8
SF-268 = system: SF-268
SF-295 = system: SF-295
SF-539 = system: SF-539
SK-MEL-28 = system: SK-MEL-28
SK-MEL-2 = system: SK-MEL-2
SK-MEL-5 = system: SK-MEL-5
SK-OV-3 = system: SK-OV-3
SN12C = system: SN12C
SNB-19 = system: SNB-19
SNB-75 = system: SNB-75
SR = system: SR
SW-620 = system: SW-620
TK-10 = system: TK-10
U-251 = system: U-251
UACC-257 = system: UACC-257
UACC-62 = system: UACC-62
UO-31 = system: UO-31

For `COC(=O)[C@@H]1Cc2c([nH]c3ccccc23)[C@H](c2ccccc2)N1`, the GI50 (786-0) was 37.2 µM (inactive), the GI50 (A498) was 20.9 µM (inactive) and the GI50 (A549) was 38.6 µM (inactive). The GI50 (ACHN) was 38.3 µM (inactive), the GI50 (CAKI-1) was 60.5 µM (inactive) and the GI50 (CCRF-CEM) was 37.3 µM (inactive). The GI50 (COLO 205) was 20 µM (inactive), the GI50 (DLD-1) was 35.2 µM (inactive) and the GI50 (DMS-114) was 32.2 µM (inactive). For the same molecule, the GI50 (DMS-273) was 26.7 µM (inactive), the GI50 (EKVX) was 44.2 µM (inactive) and the GI50 (HCC 2998) was 31.2 µM (inactive). The GI50 (HCT-116) was 29.4 µM (inactive), the GI50 (HCT-15) was 19.4 µM and the GI50 (HL-60) was 29.9 µM (inactive). The GI50 (HOP-18) was 52.1 µM (inactive), the GI50 (HOP-92) was 44.9 µM (inactive) and the GI50 (HT-29) was 49.3 µM (inactive). For the same molecule, the GI50 (IGROV-1) was 22.8 µM (inactive), the GI50 (K562) was 45.2 µM (inactive) and the GI50 (KM-20L2) was > 100 µM (inactive). For the same molecule, the GI50 (KM12) was 36.6 µM (inactive), the GI50 (LOX IMVI) was 38.9 µM (inactive) and the GI50 (LXFL 529) was 54.5 µM (inactive). The GI50 (M14) was 25.6 µM (inactive), the GI50 (M19-MEL) was 41.7 µM (inactive) and the GI50 (MOLT-4) was 41.4 µM (inactive). The GI50 (Malme-3M) was 94 µM (inactive), the GI50 (NCI-H226) was 71.8 µM (inactive) and the GI50 (NCI-H23) was 54.1 µM (inactive). For the same molecule, the GI50 (NCI-H460) was 34.5 µM (inactive), the GI50 (NCI-H522) was 21.7 µM (inactive) and the GI50 (OVCAR-3) was 31.6 µM (inactive). For the same molecule, the GI50 (OVCAR-4) was 43.6 µM (inactive), the GI50 (OVCAR-5) was > 100 µM (inactive) and the GI50 (OVCAR-8) was 41.3 µM (inactive). The GI50 (SF-268) was 41.7 µM (inactive), the GI50 (SF-295) was 26.2 µM (inactive) and the GI50 (SF-539) was 26.4 µM (inactive). For the same molecule, the GI50 (SK-MEL-28) was 85.1 µM (inactive), the GI50 (SK-MEL-2) was 32.4 µM (inactive) and the GI50 (SK-MEL-5) was 14.7 µM (inactive). For the same molecule, the GI50 (SK-OV-3) was 34.4 µM (inactive), the GI50 (SN12C) was 28.2 µM (inactive) and the GI50 (SNB-19) was 37.6 µM (inactive). The GI50 (SNB-75) was 19.5 µM (inactive), the GI50 (SR) was 29.2 µM (inactive) and the GI50 (SW-620) was 35.8 µM (inactive). For the same molecule, the GI50 (TK-10) was 33 µM (inactive), the GI50 (U-251) was 47.8 µM (inactive) and the GI50 (UACC-257) was 41.8 µM (inactive). The GI50 (UACC-62) was 50.2 µM (inactive) and the GI50 (UO-31) was 29.6 µM (inactive).
